{"source": "patent US11827624B2", "about": "“Covalent immune recruiter compounds for immune cell recognition and associated uses” (McMaster University, priority 2020, dated 2023)", "system": "HEK PSMA+cells", "assay": "Flow cytometry antibody recruitment to the target cell surface", "assay_type": "cell-based, human", "experimental": "CIR 3 or ARM 11 (640 nM) was incubated with 320 nM antibody (mmAb or mAb) at room temperature overnight. After overnight incubation, a dilution series (1:2, 1:3, 1:3, 1:3) was conducted using each condition stock which was then equilibrated for 90 minutes prior to addition to the assay well plate. HEK293 cells transfected with PSMA, were washed 3× and placed in a flow buffer containing 4% FBS, 0.5 mM EDTA/EGTA, 0.1% Sodium Azide, at a concentration of 2×10^6 Cells/mL. 75 μL of cells were added (150 000 Cells per sample) and kept on ice. 25 μL of antibody+CIR or antibody+ARM conditions prepared above were added to the target cells (experimental antibody concentrations: 80 nM, 40 nM, 13.3 nM, 4.4 nM, 1.5 nM). For the DNP Control, 4.5 mM was added to antibody for 5 minutes, then the CIR/ARM was added, and the solution incubated overnight. […]\nElimination equilibrium of the ARM:antibody through a covalent linkage to CIRs, and its impact on total antibody recruitment to target cells, at different therapeutically relevant antibody concentrations was next evaluated. […] This leads to increases in the mean fluorescence intensity (MFI) of associated cell populations, detectable in flow cytometry.\nAntibody recruitment to the cell surface is proportional to the mean fluorescence intensity (MFI) of cell populations, bound to mmAb antibody complexes comprising CIR 3 or ARM 11. […]", "data": [{"molecule": "O=C(O)CC[C@H](NC(=O)N[C@@H](CCCCNC(=O)NCCOCCOCCOCCOCCOCCOCCOCCOC(=O)n1cnc(CCNC(=O)CNc2ccc([N+](=O)[O-])cc2[N+](=O)[O-])c1)C(=O)O)C(=O)O", "note": "[CIR 3]", "values": [{"measurement": "total antibody recruitment to the target cell surface (MFI)", "setting": "higher antibody concentrations (40-80 nM)", "result": "comparable efficiencies"}, {"measurement": "total antibody recruitment to the target cell surface (MFI)", "setting": "sub-saturating mAb or mmAb (<40 nM), 37° C.", "result": "more total antibody recruitment to the target cell surface compared to ARM 11"}]}]}
